For orientation: MIC means the lowest concentration that inhibits growth of the organism. Low readings indicate inhibition by little substance, high ones a need for much substance.

Activity calls are given as the source filed them. The calls are words filed in the database; no cut-off is given here. Positions of bridges follow the written chain, without caps; N, C: chain ends. Non-standard residues stand in square brackets, D forms with d. Residues, ends and D or L forms follow the SMILES beside them. *: point of attachment. X1 = CC[C@H](C)CCCCC(=O)*; dDab = NCC[C@@H](N)C(=O)O; Dab = NCC[C@H](N)C(=O)O

From ChEMBL document CHEMBL6092167, “Phosphorylation as an Effective Tool to Improve Stability and Reduce Toxicity of Antimicrobial Peptides” (J Med Chem, 2024) come the findings set out here.

For assay [1], the system named is Staphylococcus aureus. Description: Antibacterial activity against methicillin resistant Staphylococcus aureus ATCC 33591 incubated for 18 to 24 hrs by broth microdilution method. To be noted: time 18-24 hrs. The class given is functional.
Assay [2] deals with Staphylococcus aureus. The experiment in a line: Antibacterial activity against methicillin resistant Staphylococcus aureus 48 incubated for 18 to 24 hrs by broth microdilution method. The class given is functional. The conditions noted are these: time 18-24 hrs. (Dilution methods test growth across graded concentrations, often in twofold steps.)
Assay [3] concerns Staphylococcus aureus. The experiment in a line: Antibacterial activity against Staphylococcus aureus 794 incubated for 18 to 24 hrs by broth microdilution method. The class given is functional. To be noted: time 18-24 hrs.
The test system of assay [4] is Escherichia coli. Description: Antibacterial activity against Escherichia coli 780 incubated for 18 to 24 hrs by broth microdilution method. The class given is functional. The conditions noted are these: time 18-24 hrs.
Assay [5] relates to Escherichia coli. The experiment in a line: Antibacterial activity against Escherichia coli 850 incubated for 18 to 24 hrs by broth microdilution method. To be noted: time 18-24 hrs. The class given is functional.
The test system of assay [6] is Pseudomonas aeruginosa. The experiment in a line: Antibacterial activity against Pseudomonas aeruginosa 119 incubated for 18 to 24 hrs by broth microdilution method. The class given is functional. To be noted: time 18-24 hrs.
The subject of assay [7] is Staphylococcus aureus. The experiment in a line: Antibacterial activity against Staphylococcus aureus ATCC 25923 incubated for 18 to 24 hrs by broth microdilution method. The class given is functional. The conditions noted are these: time 18-24 hrs.
In a further assay the test system is Bacillus subtilis. Description: Antibacterial activity against Bacillus subtilis ATCC 23857 incubated for 18 to 24 hrs by broth microdilution method. The class given is functional. To be noted: time 18-24 hrs.
Assay [8] has as its system Escherichia coli. Description: Antibacterial activity against Escherichia coli ATCC 25922 incubated for 18 to 24 hrs by broth microdilution method. The class given is functional. The conditions noted are these: time 18-24 hrs.
For assay [9], the system named is Pseudomonas aeruginosa. The experiment in a line: Antibacterial activity against Pseudomonas aeruginosa ATCC 27853 incubated for 18 to 24 hrs by broth microdilution method. The class given is functional. The conditions noted are these: time 18-24 hrs.
Assay [10] has as its system Klebsiella pneumoniae. The experiment in a line: Antibacterial activity against Klebsiella pneumoniae ATCC 700603 incubated for 18 to 24 hrs by broth microdilution method. The class given is functional. The conditions noted are these: time 18-24 hrs.
A further assay deals with Acinetobacter baumannii. The experiment in a line: Antibacterial activity against Acinetobacter baumannii ATCC 19606 incubated for 18 to 24 hrs by broth microdilution method. The class given is functional. The conditions noted are these: time 18-24 hrs.
The test system of assay [11] is Staphylococcus aureus. The experiment in a line: Antibacterial activity against Staphylococcus aureus ATCC 25923 assessed as fold increase in MIC in presence of Na+. The class given is functional.
Assay [12] relates to Staphylococcus aureus. Description: Bactericidal activity against Staphylococcus aureus ATCC 25923 at 2 times MIC incubated for 24 hrs by time kill assay. The class given is functional.
Assay [13] concerns Klebsiella pneumoniae. The experiment in a line: Synergistic antibacterial activity against Klebsiella pneumoniae ATCC 700603 assessed as fractional inhibitory concentration index at 1/4 to 4 times MIC incubated for 18 to 24 hrs in presence of ciprofloxacin by checkerboard assay. To be noted: time 18-24 hrs. The class given is functional.
Assay [14] relates to Klebsiella pneumoniae. Description: Additive antibacterial activity against Klebsiella pneumoniae ATCC 700603 assessed as fractional inhibitory concentration index at 1/4 to 4 times MIC incubated for 18 to 24 hrs in presence of kanamycin by checkerboard assay. The class given is functional. The conditions noted are these: time 18-24 hrs.
Assay [15] deals with Klebsiella pneumoniae. Description: Drug resistance development in Klebsiella pneumoniae ATCC 700603 assessed as fold increase in MIC measured after 20 passage. The class given is functional.
Assay [16] deals with Klebsiella pneumoniae. The experiment in a line: Antibacterial activity against Klebsiella pneumoniae 700603 preincubated for 6 hrs in presence of trypsin followed by heat inactivation for 15 mins prior to bacterial addition and measured after 18 to 24 hrs by microplate reader assay. To be noted: time 18-24 hrs. The class given is functional, organism-based.
Assay [17] has as its system Staphylococcus aureus. Description: Antibacterial activity against Staphylococcus aureus ATCC 25923 preincubated for 6 hrs in presence of trypsin followed by heat inactivation for 15 mins prior to bacterial addition and measured after 18 to 24 hrs by microplate reader assay. The class given is functional, organism-based. The conditions noted are these: time 18-24 hrs.

The subject of assay [18] is Klebsiella pneumoniae. The experiment in a line: Antibacterial activity against Klebsiella pneumoniae 700603 preincubated for 6 hrs in presence of chymotrypsin followed by heat inactivation for 15 mins prior to bacterial addition and measured after 18 to 24 hrs by microplate reader assay. The class given is functional, organism-based. To be noted: time 18-24 hrs.
For assay [19], the system named is Staphylococcus aureus. The experiment in a line: Antibacterial activity against Staphylococcus aureus ATCC 25923 preincubated for 6 hrs in presence of chymotrypsin followed by heat inactivation for 15 mins prior to bacterial addition and measured after 18 to 24 hrs by microplate reader assay. The conditions noted are these: time 18-24 hrs. The class given is functional, organism-based.

Assay [20] relates to Pseudomonas aeruginosa. Description: Antibiofilm activity against Pseudomonas aeruginosa ATCC 27853 assessed as eradication of preformed biofilms at 4 times MIC incubated for 24 hrs by crystal violet staining based assay. The class given is functional, organism-based.
Assay [21] relates to Escherichia coli. Description: Antibiofilm activity against Escherichia coli ATCC 25922 assessed as eradication of preformed biofilms at 4 times MIC incubated for 24 hrs by crystal violet staining based assay. The class given is functional, organism-based.
Assay [22] has as its system Klebsiella pneumoniae. The experiment in a line: Antibiofilm activity against Klebsiella pneumoniae ATCC 700603 assessed as eradication of preformed biofilms at 4 times MIC incubated for 24 hrs by crystal violet staining based assay. The class given is functional, organism-based.
For assay [23], the system named is Klebsiella pneumoniae. Description: Antibacterial activity against Klebsiella pneumoniae ATCC 700603 infected in BALB/c mouse lung infection model assessed as reduction in hepatic hemorrhage at 2.46 mg/kg, ip administered twice daily for 3 days and measured after 7 days. The class given is functional, organism-based. To be noted: time 10.0 day.
Assay [24] has as its system Klebsiella pneumoniae. The experiment in a line: Antibacterial activity against Klebsiella pneumoniae ATCC 700603 infected in BALB/c mouse lung infection model assessed as reduction in alveolar contraction at 2.46 mg/kg, ip administered twice daily for 3 days and measured after 7 days. The class given is functional, organism-based. To be noted: time 10.0 day.
Assay [25] concerns Klebsiella pneumoniae. Description: Antibacterial activity against Klebsiella pneumoniae ATCC 700603 infected in BALB/c mouse lung infection model assessed as reduction in pulmonary tissue bleeding at 2.46 mg/kg, ip administered twice daily for 3 days and measured after 7 days. The class given is functional, organism-based. The conditions noted are these: time 10.0 day.

Consider `CC(C)CCCCC(=O)N[C@@H](CCN)C(=O)N[C@H](C(=O)N[C@@H](CCN)C(=O)N[C@H]1CCNC(=O)[C@H]([C@@H](C)O)NC(=O)[C@H](CCN)NC(=O)[C@H](CCN)NC(=O)[C@H](CC(C)C)NC(=O)[C@@H](Cc2ccccc2)NC(=O)[C@H](CCN)NC1=O)[C@@H](C)O.CC[C@H](C)CCCCC(=O)N[C@@H](CCN)C(=O)N[C@H](C(=O)N[C@@H](CCN)C(=O)N[C@H]1CCNC(=O)[C@H]([C@@H](C)O)NC(=O)[C@H](CCN)NC(=O)[C@H](CCN)NC(=O)[C@H](CC(C)C)NC(=O)[C@@H](Cc2ccccc2)NC(=O)[C@H](CCN)NC1=O)[C@@H](C)O` (X1-[Dab]T[Dab][Dab][Dab][dF]L[Dab][Dab]T; lactam 4-C), for which the MIC in the assay on Staphylococcus aureus [1] was 16 µM; in the assay on Staphylococcus aureus [2], 16 µM; with Staphylococcus aureus [3] it was 8 µM; in the assay with Escherichia coli [4], 2 µM; against Escherichia coli [5], 2 µM; in the assay on Pseudomonas aeruginosa [6] it was 2 µM. Besides, the MIC against Staphylococcus aureus [7] came to 16 µM; against Bacillus subtilis, 4 µM; in the assay on Escherichia coli [8], 4 µM; in the assay with Pseudomonas aeruginosa [9], 2 µM; with Klebsiella pneumoniae [10], 4 µM; against Acinetobacter baumannii it was 2 µM. Further, the entries for the “fold change (FC)” value in the assay on Staphylococcus aureus [11] and with Klebsiella pneumoniae [15] were 4 and 64, respectively. In the assay with Staphylococcus aureus [12], this compound gave an Activity of 100%. Moreover, the “fractional inhibitory concentration index (FICI)” value with Klebsiella pneumoniae [13] and with Klebsiella pneumoniae [14] was 0.313 each time.
As to `CC(C)CCCCC(=O)N[C@@H](CCN)C(=O)N[C@H](C(=O)N[C@@H](CCN)C(=O)N[C@H]1CCNC(=O)[C@H]([C@@H](C)O)NC(=O)[C@H](CCN)NC(=O)[C@H](CCN)NC(=O)[C@H](CC(C)C)NC(=O)[C@@H](Cc2ccccc2)NC(=O)[C@@H](CCN)NC1=O)[C@@H](C)O.CC[C@H](C)CCCCC(=O)N[C@@H](CCN)C(=O)N[C@H](C(=O)N[C@@H](CCN)C(=O)N[C@H]1CCNC(=O)[C@H]([C@@H](C)O)NC(=O)[C@H](CCN)NC(=O)[C@H](CCN)NC(=O)[C@H](CC(C)C)NC(=O)[C@@H](Cc2ccccc2)NC(=O)[C@@H](CCN)NC1=O)[C@@H](C)O` (X1-[Dab]T[Dab][Dab][dDab][dF]L[Dab][Dab]T; lactam 4-C), the Activity entry in the assay on Klebsiella pneumoniae [16], in the assay with Staphylococcus aureus [17], with Klebsiella pneumoniae [18] and in the assay with Staphylococcus aureus [19] was “Active; High Enzymatic Stability” in each case. Further, the outcome in the assay with Pseudomonas aeruginosa [20], with Escherichia coli [21] and in the assay on Klebsiella pneumoniae [22] was Active. Moreover, the outcome with Klebsiella pneumoniae [23], in the assay with Klebsiella pneumoniae [24] and in the assay with Klebsiella pneumoniae [25] was inactive.
